Test results published in PubChem BioAssay (NCI).
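Dose response: 5 concentrations. Exposure: 48 h. Format: 96-well plates. Endpoint: linear interpolation; highest concentration if not reached. GI50: concentration for 50% inhibition of growth. TGI denotes the concentration required for complete inhibition of growth.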

What was measured:
Assay in all cases: NCI anticancer screen, dose series, 48 h
786-0 renal = test system: 786-0 renal
A498 renal = test system: A498 renal
A549 NSCLC = test system: A549 NSCLC
ACHN renal = test system: ACHN renal
BT-549 breast = test system: BT-549 breast
CAKI-1 renal = test system: CAKI-1 renal
CCRF-CEM leukemia = test system: CCRF-CEM leukemia
COLO 205 colon = test system: COLO 205 colon
DU-145 prostate = test system: DU-145 prostate
EKVX NSCLC = test system: EKVX NSCLC
HCC-2998 colon = test system: HCC-2998 colon
HCT-116 colon = test system: HCT-116 colon
HCT-15 colon = test system: HCT-15 colon
HL-60(TB) leukemia = test system: HL-60(TB) leukemia
HOP-62 NSCLC = test system: HOP-62 NSCLC
HOP-92 NSCLC = test system: HOP-92 NSCLC
HS 578T breast = test system: HS 578T breast
HT29 colon = test system: HT29 colon
IGROV1 ovarian = test system: IGROV1 ovarian
K-562 leukemia = test system: K-562 leukemia
KM12 colon = test system: KM12 colon
LOX IMVI melanoma = test system: LOX IMVI melanoma
M14 melanoma = test system: M14 melanoma
MALME-3M melanoma = test system: MALME-3M melanoma
MCF7 breast = test system: MCF7 breast
MDA-MB-231 breast = test system: MDA-MB-231 breast
MDA-MB-435 = test system: MDA-MB-435
MOLT-4 leukemia = test system: MOLT-4 leukemia
NCI-H226 lung = test system: NCI-H226 lung
NCI-H23 lung = test system: NCI-H23 lung
NCI-H460 lung = test system: NCI-H460 lung
NCI-H522 lung = test system: NCI-H522 lung
NCI/ADR-RES ovarian = test system: NCI/ADR-RES ovarian
OVCAR-3 ovarian = test system: OVCAR-3 ovarian
OVCAR-4 ovarian = test system: OVCAR-4 ovarian
OVCAR-5 ovarian = test system: OVCAR-5 ovarian
OVCAR-8 ovarian = test system: OVCAR-8 ovarian
PC-3 prostate = test system: PC-3 prostate
RPMI-8226 leukemia = test system: RPMI-8226 leukemia
RXF 393 renal = test system: RXF 393 renal
SF-268 CNS = test system: SF-268 CNS
SF-295 CNS = test system: SF-295 CNS
SF-539 CNS = test system: SF-539 CNS
SK-MEL-2 melanoma = test system: SK-MEL-2 melanoma
SK-MEL-28 melanoma = test system: SK-MEL-28 melanoma
SK-MEL-5 melanoma = test system: SK-MEL-5 melanoma
SK-OV-3 ovarian = test system: SK-OV-3 ovarian
SN12C renal = test system: SN12C renal
SNB-19 CNS = test system: SNB-19 CNS
SNB-75 CNS = test system: SNB-75 CNS
SR leukemia = test system: SR leukemia
SW-620 colon = test system: SW-620 colon
T-47D breast = test system: T-47D breast
U251 CNS = test system: U251 CNS
UACC-257 melanoma = test system: UACC-257 melanoma
UACC-62 melanoma = test system: UACC-62 melanoma
UO-31 renal = test system: UO-31 renal
TK-10 renal = test system: TK-10 renal

## COc1cc([C@@H]2c3cc4c(cc3[C@@H](O[C@@H]3O[C@@H]5CO[C@@H](c6cccs6)O[C@H]5[C@H](O)[C@H]3O)[C@H]3COC(=O)[C@H]23)OCO4)cc(OC)c1O
786-0 renal
  GI50: 193 nM
  TGI: 1340 nM
A498 renal
  GI50: 284 nM
  TGI: 2200 nM
A549 NSCLC
  GI50: 96.9 nM
  TGI: 2560 nM
ACHN renal
  TGI: 3690 nM
BT-549 breast
  GI50: 344 nM
  TGI: 4370 nM
CAKI-1 renal
  GI50: 557 nM
  TGI: 24200 nM
CCRF-CEM leukemia
  GI50: 70.4 nM
  TGI: > 100000 nM
COLO 205 colon
  GI50: 1880 nM
  TGI: 8940 nM
DU-145 prostate
  GI50: 288 nM
  TGI: 3430 nM
EKVX NSCLC
  GI50: 4100 nM
  TGI: > 100000 nM
HCC-2998 colon
  GI50: 385 nM
  TGI: 2020 nM
HCT-116 colon
  GI50: 344 nM
  TGI: 4810 nM
HCT-15 colon
  TGI: > 55900 nM
HL-60(TB) leukemia
  GI50: 119 nM
  TGI: 967 nM
HOP-62 NSCLC
  GI50: 197 nM
  TGI: 2340 nM
HOP-92 NSCLC
  TGI: 1990 nM
HS 578T breast
  GI50: 2030 nM
  TGI: 15300 nM
HT29 colon
  GI50: 614 nM
  TGI: 3660 nM
IGROV1 ovarian
  TGI: 36700 nM
K-562 leukemia
  GI50: 411 nM
  TGI: > 100000 nM
KM12 colon
  GI50: 634 nM
  TGI: 4340 nM
LOX IMVI melanoma
  GI50: 96.9 nM
  TGI: 2260 nM
M14 melanoma
  GI50: 267 nM
  TGI: 2950 nM
MALME-3M melanoma
  GI50: 435 nM
  TGI: 5020 nM
MCF7 breast
  GI50: 49.1 nM
  TGI: > 100000 nM
MDA-MB-231 breast
  GI50: 1560 nM
  TGI: 7430 nM
MDA-MB-435
  GI50: 1150 nM
  TGI: > 39200 nM
MOLT-4 leukemia
  GI50: 31.3 nM
NCI-H226 lung
  GI50: 152 nM
  TGI: 742 nM
NCI-H23 lung
  GI50: 179 nM
  TGI: 2600 nM
NCI-H460 lung
  GI50: 23 nM
  TGI: 2090 nM
NCI-H522 lung
  GI50: 208 nM
  TGI: 1400 nM
NCI/ADR-RES ovarian
  GI50: 19000 nM
  TGI: > 100000 nM
OVCAR-3 ovarian
  GI50: 1420 nM
  TGI: 5450 nM
OVCAR-4 ovarian
  GI50: 2830 nM
  TGI: 37400 nM
OVCAR-5 ovarian
  GI50: 1560 nM
  TGI: 8270 nM
OVCAR-8 ovarian
  GI50: 340 nM
  TGI: 2510 nM
PC-3 prostate
  GI50: 1690 nM
  TGI: > 69700 nM
RPMI-8226 leukemia
  TGI: 6480 nM
RXF 393 renal
  GI50: 409 nM
  TGI: 3410 nM
SF-268 CNS
  GI50: 266 nM
  TGI: 7200 nM
SF-295 CNS
  GI50: 186 nM
  TGI: 8210 nM
SF-539 CNS
  GI50: 97.2 nM
  TGI: 432 nM
SK-MEL-2 melanoma
  GI50: 1330 nM
  TGI: 4840 nM
SK-MEL-28 melanoma
  GI50: 440 nM
  TGI: 2900 nM
SK-MEL-5 melanoma
  GI50: 157 nM
  TGI: 1330 nM
SK-OV-3 ovarian
  GI50: 456 nM
  TGI: 10200 nM
SN12C renal
  GI50: 166 nM
  TGI: 2730 nM
SNB-19 CNS
  GI50: 167 nM
  TGI: > 100000 nM
SNB-75 CNS
  GI50: 104 nM
  TGI: 1560 nM
SR leukemia
  GI50: 10.1 nM
  TGI: 15000 nM
SW-620 colon
  GI50: 175 nM
  TGI: > 46100 nM
T-47D breast
  GI50: 207 nM
  TGI: 12300 nM
U251 CNS
  GI50: 180 nM
  TGI: 6960 nM
UACC-257 melanoma
  GI50: 796 nM
  TGI: 10500 nM
UACC-62 melanoma
  GI50: 233 nM
  TGI: 3300 nM
UO-31 renal
  GI50: 1780 nM
  TGI: 14700 nM

## Cc1nc(/N=C(\N)NC(=O)Nc2ccccc2Cl)sc1C
786-0 renal
  GI50: 639 nM
  TGI: 3250 nM
A498 renal
  GI50: 249 nM
  TGI: 1100 nM
A549 NSCLC
  GI50: 675 nM
  TGI: > 100000 nM
ACHN renal
  GI50: 638 nM
  TGI: 7790 nM
BT-549 breast
  GI50: 637 nM
  TGI: 10300 nM
CAKI-1 renal
  GI50: 435 nM
  TGI: 9410 nM
CCRF-CEM leukemia
  GI50: 352 nM
  TGI: > 53200 nM
COLO 205 colon
  GI50: 474 nM
  TGI: 4570 nM
DU-145 prostate
  GI50: 621 nM
  TGI: 5850 nM
EKVX NSCLC
  GI50: 626 nM
  TGI: > 100000 nM
HCC-2998 colon
  GI50: 1250 nM
  TGI: > 100000 nM
HCT-116 colon
  GI50: 402 nM
HCT-15 colon
  GI50: 250 nM
  TGI: > 100000 nM
HL-60(TB) leukemia
  GI50: 331 nM
  TGI: 28900 nM
HOP-62 NSCLC
  GI50: 505 nM
  TGI: 2840 nM
HOP-92 NSCLC
  GI50: 1540 nM
  TGI: 15800 nM
HS 578T breast
  GI50: 548 nM
  TGI: 5550 nM
HT29 colon
  GI50: 333 nM
  TGI: 5320 nM
IGROV1 ovarian
  GI50: 528 nM
  TGI: > 100000 nM
K-562 leukemia
  GI50: 86.1 nM
  TGI: > 100000 nM
KM12 colon
  GI50: 405 nM
  TGI: > 100000 nM
LOX IMVI melanoma
  GI50: 533 nM
  TGI: > 100000 nM
M14 melanoma
  GI50: 314 nM
  TGI: 18700 nM
MALME-3M melanoma
  GI50: 643 nM
  TGI: 4790 nM
MCF7 breast
  GI50: 359 nM
  TGI: > 100000 nM
MDA-MB-231 breast
  GI50: 1060 nM
  TGI: 50300 nM
MDA-MB-435
  GI50: 86.8 nM
  TGI: 466 nM
MOLT-4 leukemia
  GI50: 492 nM
  TGI: > 100000 nM
NCI-H226 lung
  GI50: 1150 nM
  TGI: 14900 nM
NCI-H23 lung
  GI50: 687 nM
  TGI: > 74900 nM
NCI-H460 lung
  GI50: 367 nM
  TGI: 1620 nM
NCI-H522 lung
  GI50: 189 nM
NCI/ADR-RES ovarian
  GI50: 271 nM
  TGI: 3280 nM
OVCAR-3 ovarian
  GI50: 299 nM
  TGI: 1280 nM
OVCAR-5 ovarian
  GI50: 1320 nM
  TGI: > 100000 nM
OVCAR-8 ovarian
  GI50: 592 nM
  TGI: > 40200 nM
PC-3 prostate
  GI50: 659 nM
  TGI: > 100000 nM
RPMI-8226 leukemia
  GI50: 406 nM
  TGI: 7650 nM
RXF 393 renal
  GI50: 399 nM
  TGI: 2110 nM
SF-268 CNS
  GI50: 1350 nM
  TGI: > 100000 nM
SF-295 CNS
  GI50: 363 nM
  TGI: 2700 nM
SF-539 CNS
  GI50: 413 nM
  TGI: 8340 nM
SK-MEL-2 melanoma
  GI50: 571 nM
  TGI: 16400 nM
SK-MEL-28 melanoma
  GI50: 916 nM
  TGI: > 100000 nM
SK-MEL-5 melanoma
  GI50: 508 nM
  TGI: 7390 nM
SK-OV-3 ovarian
  GI50: 735 nM
  TGI: 5540 nM
SN12C renal
  GI50: 739 nM
  TGI: > 100000 nM
SNB-19 CNS
  GI50: 462 nM
  TGI: 12400 nM
SNB-75 CNS
  GI50: 226 nM
  TGI: 910 nM
SR leukemia
  GI50: 173 nM
  TGI: 35500 nM
SW-620 colon
  GI50: 329 nM
  TGI: > 100000 nM
T-47D breast
  GI50: 519 nM
  TGI: > 100000 nM
TK-10 renal
  GI50: 1840 nM
  TGI: 6410 nM
U251 CNS
  GI50: 439 nM
  TGI: 6130 nM
UACC-257 melanoma
  GI50: 1440 nM
  TGI: > 100000 nM
UACC-62 melanoma
  GI50: 488 nM
  TGI: > 100000 nM
UO-31 renal
  GI50: 857 nM
  TGI: 6490 nM
